From patent US20200038415A1, “AMINOSTEROL COMPOSITIONS AND METHODS OF USING THE SAME FOR TREATING ERECTILE DYSFUNCTION” (Enterin, Inc., priority 2018, published 2020)
Values joined by “and” are separate entries in the source; they are usually repeats but may differ in a detail not shown here. Equal entries are not always repeated.

Tests used:
[1] = Pharmacokinetics of orally administered squalamine (ENT-01) in Stage 1; format: in vivo, human; details: based on PK of intravenously administered squalamine in prior clinical studies
Protocol: PK data were collected on the 10 patients enrolled in Stage 1 and 10 patients enrolled in Stage 2 to determine the extent of systemic absorption. In Stage 1, PK data were obtained at each visit, pre-medication, at 1, 2, 4, 8 and 24 hours (Table 10). In Stage 2, PK was measured on days 1 and 6 of the randomization period pre-medication, at 1, 2, 4 and 8 hours (Table 11).
The mean Cmax, Tmax and T1/2 and AUC of the squalamine ion following squalamine (ENT-01) oral dosing for Stage 1 patients. The PK analyses are only approximate, as the lower limit of the validated concentration range was 10 ng/ml; most of the measured concentrations fell below that value. The mean Cmax, Tmax and T1/2 and AUC of the squalamine ion following squalamine (ENT-01) oral dosing for Stage 2 patients. The PK analyses are only approximate, as the lower limit of the validated concentration range was 0.5 ng/ml.

[2] = system: PD patients with constipation; assay: CNS symptoms in Stage 2 (UPDRS, MMSE, PDHQ, BDI-II, sleep diary); format: in vivo, human; details: for hallucinations and delusions improved or disappeared during treatment: 6 patients with hallucinations or delusions at baseline
From the text: (5) Sleep Diary (participants completed a sleep diary on a daily basis throughout the study. The diaries included time into bed and estimated time to sleep as well as wake time and duration during the night.);
(8) Beck Depression Inventory (BDI-II);
(9) Unified Parkinson's Disease Rating Scale (UPDRS), which consists of 42 items in four subscales (Part I=Non-Motor Aspects of Experiences of Daily Living (nM-EDL) (1.1 cognitive impairment, 1.2 hallucinations and psychosis, 1.3 depressed mood, Part II=Motor Aspects of Experiences of Daily Living (M-EDL), Part III=Motor Examination, and Part IV=Motor Complications;
(10) Mini Mental State Examination (MMSE);
(12) The University of Miami Parkinson's Disease Hallucinations Questionnaire (UM-PDHQ);
Exploratory end-points, in addition to constipation, included for example, (i) depression assessed using the Beck Depression Inventory (BDI-II) (Steer et al. 2000) and Unified Parkinson's Disease Rating Scale (UPDRS); (ii) cognition assessed using the Mini Mental State Examination (MMSE) (Palsteia et al. 2018), Unified Parkinson's Disease Rating Scale (UPDRS), and Trail Making Test (TMT); (iii) sleep and REM-behavior disorder (RBD) using a daily sleep diary, I-Button Temperature Assessment, a REM sleep behavior disorder (RBD) questionnaire (RBDQ) (Stiasny-Kolster et al. 2007), and the UPDRS; (iv) hallucinations assessed using the PD hallucinations questionnaire (PDHQ) (Papapetropoulos et al. 2008), the UPDRS, and direct questioning; (v) fatigue using the Parkinson's Disease Fatigue Scale (PFS-16) and the UPDRS; (vi) motor functions using the UPDRS; and (vii) non-motor functions using the UPDRS.
Assessments were made at baseline and at the end of the fixed dose and washout periods. Circadian system status was evaluated by continuously monitoring wrist skin temperature (Thermochron iButton DS1921H; Maxim, Dallas) following published procedures (Sarabia et al. 2008).
An exploratory analysis was done with respect to the sleep data, the body temperature data, mood, fatigue, hallucinations, cognition and other motor and non-motor symptoms of PD. Continuous measurements within a subject were compared with a paired t-test and continuous measurements between subject groups were compared with a two-group t-test. Categorical data were compared with a chi-squared test or a Fisher's exact test if the expected cell counts are too small for a chi-squared test.

CC(C)[C@@H](CC[C@@H](C)[C@H]1CC[C@H]2[C@@H]3[C@H](O)C[C@H]4C[C@@H](NCCCNCCCCN)CC[C@]4(C)[C@H]3CC[C@]12C)OS(=O)(=O)O (single isomer, unassigned) [squalamine (ENT-01), squalamine]
oral bio-availability (estimated) [1]: less than 0.3%
oral bio-availability (estimated) ([1]; listed as aminosterol): < 0.3%
hallucinations and delusions improved or disappeared during treatment [2]: 5 of 6 and five
hallucinations and delusions improved or disappeared during treatment ([2]; listed as aminosterol): five and 5 of 6
improvement of arm or leg thrashing frequency ([2]; baseline 2.2 episodes/week to 0 at maximal dose): 100%
total sleep time versus baseline ([2]; beyond 125 mg): consistently higher than baseline
hallucinations/delusions did not return following discontinuation ([2]; in 1 patient): 4 weeks
hallucinations/delusions did not return following discontinuation ([2]; in another patient): 2 weeks
time free of hallucinations following cessation of dosing ([2]; one patient): 1 month
